One test relates to MDA-MB-231. Briefly: Breast cancer cell line apoptosis assay (nucleosome ELISA). The format is cell-based. To be noted: Homo sapiens, 24 hr, read-out: EC50 apoptosis induction. As to the method:
(§1) Human breast carcinoma cell lines MDA-MB-468, MDA-MB-231, MBA-MD-435 and MCF7 were kindly provided by Dr. Powel H. Brown (Breast Cancer Center, Baylor College of Medicine). Breast cancer cell line, MDA-MB-453 was kindly provided by Dr. Shou Jiang (Breast Cancer Center, Baylor College of Medicine). All cell lines were grown in DMEM medium supplemented with 10% fetal bovine serum (FBS), 25,000 units penicillin G, 25,000 µg streptomycin, and 131.4 mg L-Glutamine and cultured in the incubator under the condition of 95% air, 5% CO2 at 37°C [33]. Cells were seeded at 2,500 cells/cm^2 into 12-well plates. At 80% confluency, cells were washed with PBS and supplemented with fresh medium containing compound or the topoisomerase I-inhibitor, camptothecin, at 0, 0.1, 0.3, 1, 3, 10, 30, 100, 300 µM. At 24 hours, treatment was terminated by removing the medium from each well. Cells were lysed with cell lysis buffer (600 µl for 30 minutes at 25°C). Cell lysate (200 µl) was centrifuged at 200 g for 10 minutes and 20 µl of each supernatant was assayed for nucleosomes using the Cell Death Detection ELISA (Roche Applied Science) as described by the manufacturer. The percent maximum nucleosome level was calculated by dividing the nucleosome level by the maximum nucleosome level achieved in the assay and multiplying by 100. This value was plotted as a function of the log compound concentration and the best-fitting curve and EC50 value determined using 4-Parameter Logistic Model/Dose Response/XLfit 4.2, IDBS software.
(§2) Figure 5 Apoptosis induction of breast cancer cell lines by compounds; selective apoptosis of cell lines that are Stat3 dependent. MDA-MB-468 (panel A), MDA-MB-231 (panel B), MDA-MB-435 (panel C), MCF7 (panel D) and MDA-MB-453 (panel E) were seeded in 12-well plates, grown overnight then treated with the indicated compound for 24 hr. Cells were centrifuged and the supernatants assayed for nucleosome levels by ELISA. The percent maximum nucleosome level was calculated (nucleosome level ÷ maximum nucleosome level achieved in the assay ×100) and plotted as a function of the log compound concentration. The best-fitting curve was determined using 4-ParameterLogistic Model/Dose Response One Site/XLfit 4.2, IDBS software and was used to determine the EC50 value (Table 3).
(In general: In an ELISA, binding on a coated surface is turned into a signal by an enzyme label.)

Another test relates to MCF7. The test is described as above. It is filed as cell-based. To be noted: Homo sapiens, 24 hr, read-out: EC50 apoptosis induction. The method, then:
as §1, §2

The next test relates to MDA-MB-435. The description is as above. The format is cell-based. The following applies: Homo sapiens, 24 hr, read-out: EC50 apoptosis induction. The method, then: as §1, §2
The next test has as its system MDA-MB-453. The description is as above. The format is cell-based. The following applies: Homo sapiens, 24 hr, read-out: EC50 apoptosis induction. As to the method:
as §1, §2

Another test has as its system MDA-MB-468. The description is as above. It is filed as cell-based. The following applies: Homo sapiens, 24 hr, read-out: EC50 apoptosis induction. As to the method: as §1, §2
Test [1] has as its system IFN-γ-mediated Stat1 phosphorylation. Briefly: Immunoblot of IFN-γ-mediated Stat1 phosphorylation in HepG2 cells. It is filed as cell-based, human. To be noted: compound 300 µM 1 hour, IFN-γ 30 ng/ml 30 min. As to the method:
(§3) The human hepatocellular carcinoma cell line (HepG2) was grown in 6-well plates under standard conditions. Cells were pretreated with compounds (0, 1, 3, 10, 30, 100 and 300 µM) for 1 hour then stimulated under optimal conditions with either interleukin-6 (IL-6; 30 ng/ml for 30 min) to activate Stat3 or interferon gamma (IFN-γ; 30 ng/ml for 30 min) to activate Stat1 [28]. Cultures were then harvested and proteins extracted using high-salt buffer, as described. Briefly, extracts were mixed with 2× sodium dodecyl sulfate (SDS) sample buffer (125 mM Tris-HCL pH 6.8; 4% SDS; 20% glycerol; 10% 2-mercaptoethanol) at a 1∶1 ratio and heated for 5 minutes at 100°C. Proteins (20 µg) were separated by 7.5% SDS-PAGE and transferred to polyvinylidene fluoride (PVDF) membrane (Millipore, Waltham, MA) and immunoblotted. Prestained molecular weight markers (BioRad; Hercules, CA) were included in each gel. Membranes were probed serially with antibody against Stat1 pY701 or Stat3 pY705 followed by antibody against Stat1 or Stat3 (Transduction labs, Lexington, KY) then antibody against β–actin (Abcam, Cambridge, MA). Membranes were stripped between antibody probing using Restore™ Western Blot Stripping Buffer (Thermo Fisher Scientific Inc., Waltham, MA) per the manufacturer's instructions. Horseradish peroxidase-conjugated goat-anti-mouse IgG was used as the secondary antibody (Invitrogen Carlsbad, CA) and the membranes were developed with enhanced chemiluminescence (ECL) detection system (Amersham Life Sciences Inc.; Arlington Heights, IL.).
Figure 2 Effect of compounds on ligand-mediated Stat3 and Stat1 phosphorylation. […] Cells were then stimulated with IL-6 (30 ng/ml) for 30 min. Protein extracts of cells were separated by SDS-PAGE, blotted and developed serially with antibodies to pStat3, total Stat3 and β-actin. Blots were stripped between each antibody probing. Band intensities were quantified by densitometry. The value of each pStat3 band was divided by its corresponding total Stat3 band intensity; the results were normalized to the DMSO-treated control value. This value was plotted as a function of the log compound concentration. The best-fitting curve was determined using 4-Parameter Logistic Model/Dose Response/XLfit 4.2, IDBS software and was used to calculate the IC50 value (Table 1). Each panel is representative of 3 or more experiments. In panel G, HepG2 cells were pretreated with DMSO alone or DMSO containing each of the compounds at a concentration of 300 µM for 60 min. Cells were then stimulated with IFN-γ (30 ng/ml) for 30 min. Protein extracts of cells were separated by SDS-PAGE and immunoblotted serially with antibodies to pStat1, total Stat1 and β-actin. Blots were stripped between each immunoblotting. The results shown are representative of 2 or more experiments.
(In general: A western blot detects proteins with antibodies after separation by electrophoresis.)

Test [2] relates to cell lines MDA-MB-453 and MCF7. Put plainly: Apoptosis assay, summary over the cell lines without constitutive Stat3 activity. The format is cell-based. To be noted: Homo sapiens. As to the method:
as §1, with “100.” for “100. This value was plotted as a function of the log compound concentration and the best-fitting curve and EC50 value determined using 4-Parameter Logistic Model/Dose Response/XLfit 4.2, IDBS software.”
as §2, with “MDA-MB-468” for “Figure 5 Apoptosis induction of breast cancer cell lines by compounds; selective apoptosis of cell lines that are Stat3 dependent. MDA-MB-468”

Test [3] concerns breast cancer cell lines with constitutive Stat3 activity—MDA-MB-468, MDA-MB-231 and MDA-MB-435. Put plainly: Apoptosis assay, summary over the cell lines with constitutive Stat3 activity. It is filed as cell-based. The following applies: Homo sapiens. As to the method:
as §1, with “100.” for “100. This value was plotted as a function of the log compound concentration and the best-fitting curve and EC50 value determined using 4-Parameter Logistic Model/Dose Response/XLfit 4.2, IDBS software.”
as §2, with “MDA-MB-468” for “Figure 5 Apoptosis induction of breast cancer cell lines by compounds; selective apoptosis of cell lines that are Stat3 dependent. MDA-MB-468”

Test [4] deals with IL-6-mediated Stat3 nuclear translocation (GFP-Stat3α). Put plainly: HTFM nuclear translocation assay in MEF/GFP-Stat3α cells. The format is cell-based, murine. As to the method: Confocal and high-throughput fluorescence microscopy (HTFM) of MEF/GFP-Stat3α cells were performed as described. Briefly, for confocal fluorescence microscopy, cells were grown in 6-well plates containing a cover slip. For HTFM, cells were seeded into 96-well CC3 plates at a density of 5,000 cells/well using an automated plating system. Cells were cultured under standard conditions until 85–90% confluent. Cells were pre-treated with compound for 1 hour at 37°C then stimulated with IL-6 (200 ng/ml) and IL-6sR (250 ng/ml) for 30 minutes to provide optimal Stat3 activation and nuclear translocation in these cells, as described. Cells were fixed with 4% formaldehyde in PEM Buffer (80 mM Potassium PIPES, pH 6.8, 5 mM EGTA pH 7.0, 2 mM MgCl2) for 30 minutes at 4°C, quenched in 1 mg/ml of NaBH4 (Sigma) in PEM buffer and counterstained for 1 min in 4,6-diamidino-2-phenylindole (DAPI; Sigma; 1 mg/ml) in PEM buffer. Cover slips were examined by confocal fluorescent microscopy. Plates were analyzed by automated HTFM using the Cell Lab IC Image Cytometer (IC100) platform and Cytoshop Version 2.1 analysis software (Beckman Coulter). Nuclear translocation is quantified by using the fraction localized in the nucleus (FLIN) measurement. FLIN values were normalized by subtracting the FLIN for unstimulated cells then dividing this difference by the maximum difference (delta, Δ) in FLIN (FLIN in cells stimulated with IL-6/sIL-6R in the absence of compound minus FLIN of unstimulated cells). This ratio was multiplied by 100 to obtain the percentage of maximum difference in FLIN and was plotted, where indicated, as a function of the log compound concentration. The best-fitting curve and IC50 value were determined using 4-Parameter Logistic Model/Dose Response/XLfit 4.2, IDBS software.
Figure 4 Inhibition of cytoplasmic-to-nuclear translocation of Stat3 assessed by confocal and high-throughput fluorescence microscopy (HTFM). […] Coverslips were examined by confocal fluorescent microscopy using filters to detect GFP (column one), DAPI (column two) or both (merge; column three). In panel B, MEF-GFP-Stat3 cells were grown in 96-well plates with optical glass bottoms and pre-treated with the indicated compound at the indicated concentrations in quadruplicate for 1 hour then stimulated with IL-6 (200 ng/ml) and IL-6sR (250 ng/ml) for 30 minutes. Cells were fixed and the plates were examined by high-throughput microscopy to determine the fluorescence intensity in the nucleus (FLIN). The percent of maximum change (delta, Δ) in FLIN was calculated as described in the Methods and plotted as a function of the log of the compound concentration. […] Best-fit curves were determined using 4-Parameter Logistic Model/Dose Response/XLfit 4.2, IDBS software and were used to calculate the IC50 values (Table 2).

A further test deals with Stat3 (Homo sapiens, UniProt P40763). Briefly: Stat3/pY-peptide binding assay (SPR, BIAcore). As to the method:
A control (Stat3 with DMSO but without compound) was run at the beginning and the end of each cycle (40 sample injections) to ensure that the integrity of the sensor chip was maintained throughout the cycle run. The average of the two controls was normalized to 100% and used to evaluate the effect of each compound on Stat3 binding. Responses were normalized by dividing the value at 2 min by the response obtained in the absence of compounds at 2 min and multiplying by 100.
(In general: Surface plasmon resonance follows binding to a sensor surface in real time, without labels.)

For test [5], the system named is IL-6-mediated phosphorylation of Stat3. Briefly: Immunoblot of IL-6-mediated Stat3 phosphorylation in HepG2 cells. To be noted: Homo sapiens, compound 60 min, then IL-6 30 ng/ml 30 min, read-out: pStat3 IC50, inhibition of IL-6-mediated Stat3 phosphorylation. The format is cell-based. The method, then: as §3
Figure 2 Effect of compounds on ligand-mediated Stat3 and Stat1 phosphorylation. […] Cells were then stimulated with IL-6 (30 ng/ml) for 30 min. Protein extracts of cells were separated by SDS-PAGE, blotted and developed serially with antibodies to pStat3, total Stat3 and β-actin. Blots were stripped between each antibody probing. Band intensities were quantified by densitometry. […] The best-fitting curve was determined using 4-Parameter Logistic Model/Dose Response/XLfit 4.2, IDBS software and was used to calculate the IC50 value (Table 1). […]

[6] abbreviates: 24 hr, read-out: EC50 apoptosis induction, range over three cell lines.

Four molecules from paper PMC2653189 (PLoS ONE, 2009) can be followed below.

Read-outs that look alike come from different tables or passages of the source.

Chain of Stat3 (P40763 whole entry, species assumed): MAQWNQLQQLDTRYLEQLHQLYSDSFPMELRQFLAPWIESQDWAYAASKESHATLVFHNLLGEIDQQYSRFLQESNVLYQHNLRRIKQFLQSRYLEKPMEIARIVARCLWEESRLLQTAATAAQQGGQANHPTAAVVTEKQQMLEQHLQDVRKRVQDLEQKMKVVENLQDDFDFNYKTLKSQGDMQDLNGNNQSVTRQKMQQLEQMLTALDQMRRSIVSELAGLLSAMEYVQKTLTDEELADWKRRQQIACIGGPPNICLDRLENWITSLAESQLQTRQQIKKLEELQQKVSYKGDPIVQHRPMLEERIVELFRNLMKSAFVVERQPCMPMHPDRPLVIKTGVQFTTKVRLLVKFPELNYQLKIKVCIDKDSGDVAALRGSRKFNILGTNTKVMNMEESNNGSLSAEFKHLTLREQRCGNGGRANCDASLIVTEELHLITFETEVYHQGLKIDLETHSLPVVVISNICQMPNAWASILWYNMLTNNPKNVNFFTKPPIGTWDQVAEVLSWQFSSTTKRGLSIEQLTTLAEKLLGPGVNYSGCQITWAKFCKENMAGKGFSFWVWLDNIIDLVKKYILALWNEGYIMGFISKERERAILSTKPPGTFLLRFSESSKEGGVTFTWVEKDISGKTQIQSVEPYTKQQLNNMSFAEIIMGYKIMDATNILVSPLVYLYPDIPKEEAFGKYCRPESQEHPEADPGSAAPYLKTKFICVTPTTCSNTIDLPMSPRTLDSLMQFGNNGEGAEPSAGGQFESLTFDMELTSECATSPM

Turning to `CC[C@@]1(O)C(=O)OCc2c1cc1n(c2=O)Cc2cc3ccccc3nc2-1` [CAM, camptothecin, reference compound], the EC50 stood at 1.62 µM in the test on MDA-MB-231; 0.13 µM with MCF7; 1.64 µM in the test with MDA-MB-435; 0.93 µM in the test on MDA-MB-453; 0.74 µM in the test with MDA-MB-468.

Consider `CCN1C(=O)C(=Cc2ccc(-c3ccc(C(=O)O)cc3)o2)SC1=S` [Cpd30, 4-{5-[(3-ethyl-4-oxo-2-thioxo-1,3-thiazolidin-5-ylidene)methyl]-2-furyl}benzoic acid], for which, in test [1], the “Block of IFN-γ-stimulated Stat1 phosphorylation” value is “did not”. Further, the EC50 in test [2] (concentrations up to 300 µM, read-out: EC50 apoptosis induction, MDA-MB-453 and MCF7) was above 300 µM; in the test on MDA-MB-231, 92 µM; with MCF7 it was above 300 µM; in the test on MDA-MB-435, 16.3 µM; with MDA-MB-453 it was above 300 µM; with MDA-MB-468, 6.42 µM. Further, the EC50 in test [3] (setting [6]) fell in the range of 6.4 to 92.2 µM.

Turning to `CCN1C(=O)C(=Cc2ccc(-c3cc(C(=O)O)ccc3Cl)o2)C(=O)N(CC)C1=S` [Cpd30-12, 4-chloro-3-{5-[(1,3-diethyl-4,6-dioxo-2-thioxotetrahydro-5(2H)-pyrimidinylidene)methyl]-2-furyl}benzoic acid], the “Block of IFN-γ-stimulated Stat1 phosphorylation” value in test [1] is given as “blocked Stat1 phosphorylation”. The IC50 in test [4] (Mus musculus, compound 1 hour, then IL-6 200 ng/ml and IL-6sR 250 ng/ml 30 min, read-out: HTFM IC50, inhibition of IL-6-mediated Stat3 nuclear translocation) was above 300 µM; at Stat3, 114 µM; in test [5], 60 µM. Also, the “Block of ligand-mediated nuclear translocation of GFP-Stat3α (in words)” value in test [4] (preincubation with compound) was “not”.

For the molecule `O=C(O)CSc1cc(NS(=O)(=O)c2ccc(C(=O)O)cc2)c2ccccc2c1O` [Cpd188, 4-[({3-[(carboxymethyl)thio]-4-hydroxy-1-naphthyl}amino)sulfonyl]benzoic acid], in test [1], the “Block of IFN-γ-stimulated Stat1 phosphorylation” value is recorded as “did not”. For the same molecule, the EC50 was determined as 16.4 ± 1.2 µM in test [2] (read-out: EC50 apoptosis induction, mean±SD over MDA-MB-453 and MCF7); 3.96 µM in the test on MDA-MB-231; 17.2 µM in the test on MCF7; 7.01 µM in the test with MDA-MB-435; 15.5 µM in the test on MDA-MB-453; 0.73 µM in the test with MDA-MB-468. Further, the EC50 in test [3] (setting [6]) is 0.7 to 7 µM; in test [3] (read-out: EC50 apoptosis induction, mean±SD over three cell lines), 3.9 ± 3.1 µM.

A word on the EC50: it is the midpoint of the concentration-response curve. A word on the IC50: it is the concentration that inhibits the measured activity by half.
